Laboratory results reported in US7576094B2, “Spiro derivatives as lipoxygenase inhibitors” (Eli Lilly and Company, priority 2004, dated 2009).

Assays:
[1] = molecular target: T1, human recombinant 5-Lipoxygenase (Homo sapiens, UniProt P09917); experiment: 5-Lipoxygenase Enzyme Assay; format: biochemical; details: 70 μM arachidonic acid, 10 minute incubation at room temperature, FOX reagent, absorbance at 620 nm; read-out: inhibition of 5-Lipoxygenase with an IC50
T1 sequence (P09917 1-674): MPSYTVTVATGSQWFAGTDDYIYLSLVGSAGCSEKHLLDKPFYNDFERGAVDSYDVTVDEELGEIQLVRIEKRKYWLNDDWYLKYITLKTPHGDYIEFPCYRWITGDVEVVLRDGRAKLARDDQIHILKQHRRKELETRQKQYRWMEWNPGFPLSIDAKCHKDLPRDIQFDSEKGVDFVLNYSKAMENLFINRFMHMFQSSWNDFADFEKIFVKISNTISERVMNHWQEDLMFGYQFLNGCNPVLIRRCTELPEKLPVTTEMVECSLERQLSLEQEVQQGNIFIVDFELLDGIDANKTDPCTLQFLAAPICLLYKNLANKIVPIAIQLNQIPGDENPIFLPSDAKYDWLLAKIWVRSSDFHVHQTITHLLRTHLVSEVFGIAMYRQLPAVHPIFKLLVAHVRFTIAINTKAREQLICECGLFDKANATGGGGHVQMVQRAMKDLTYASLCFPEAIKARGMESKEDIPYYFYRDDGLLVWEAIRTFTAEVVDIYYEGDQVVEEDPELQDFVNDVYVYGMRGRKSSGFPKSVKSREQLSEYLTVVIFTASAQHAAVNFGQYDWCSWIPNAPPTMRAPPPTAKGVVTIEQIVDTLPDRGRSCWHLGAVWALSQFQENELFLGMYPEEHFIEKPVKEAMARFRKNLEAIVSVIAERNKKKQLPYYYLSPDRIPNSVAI
Procedure, shortened: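 Recombinant human 5-LOX in 50 mM Tris-HCl pH 7.4 was preincubated with compound, then 70 μM arachidonic acid was added for 10 min at room temperature. Hydroperoxide was read by FOX reagent (ferric xylenol orange, 1 h complex formation) as absorbance at 620 nm. Five concentrations in triplicate were tested, starting at 10 μM.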

[2] = molecular target: T2, porcine leukocyte 12/15-Lipoxygenase (Sus scrofa, UniProt P16469); experiment: 12/15-Lipoxygenase Enzyme Assay; format: biochemical; details: 70 μM arachidonic acid, 10 minute incubation at room temperature, FOX reagent, absorbance at 620 nm; read-out: inhibition of 12/15-Lipoxygenase with an IC50
T2 sequence (P16469 1-663): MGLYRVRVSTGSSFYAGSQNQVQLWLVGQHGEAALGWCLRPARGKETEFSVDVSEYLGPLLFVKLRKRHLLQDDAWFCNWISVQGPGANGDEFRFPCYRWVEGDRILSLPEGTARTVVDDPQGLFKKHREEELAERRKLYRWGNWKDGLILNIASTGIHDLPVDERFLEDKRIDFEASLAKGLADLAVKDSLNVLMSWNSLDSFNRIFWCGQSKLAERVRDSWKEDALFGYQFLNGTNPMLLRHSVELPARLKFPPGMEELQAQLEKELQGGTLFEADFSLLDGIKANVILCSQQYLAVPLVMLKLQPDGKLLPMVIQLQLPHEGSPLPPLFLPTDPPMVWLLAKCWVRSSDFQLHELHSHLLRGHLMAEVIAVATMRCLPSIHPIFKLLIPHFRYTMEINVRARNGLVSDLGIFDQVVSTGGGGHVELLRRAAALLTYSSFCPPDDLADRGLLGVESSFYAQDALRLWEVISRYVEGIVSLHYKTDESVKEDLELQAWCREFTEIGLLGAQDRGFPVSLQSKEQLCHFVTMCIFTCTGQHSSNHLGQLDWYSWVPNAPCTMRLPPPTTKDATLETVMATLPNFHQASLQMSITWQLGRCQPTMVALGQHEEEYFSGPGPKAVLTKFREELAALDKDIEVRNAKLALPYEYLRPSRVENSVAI
Excerpt: This procedure was used for measuring the enzymatic activity of porcine leukocyte 12/15-Lipoxygenase using a […] method based on the ferric oxidation of xylenol orange.
• 96 well flat bottom microfilter plates (VWR, Catalog # 62402-933 9295) • Lipoxygenase screening assay buffer (Cayman, Catalog # 760710) • Porcine leukocyte 12/15-Lipoxygenase (Cayman, Catalog # 60300) • Arachidonic Acid (Sigma, Catalog # A3555) • Xylenol orange tetrasodium salt (Aldrich, Catalog # 227854) • Iron (II) sulfate heptahydrate (Sigma, Catalog # F7002) • Sulfuric acid (95-98%) [18M] • Methanol Procedure
Porcine Leukocyte 12/15-Lipoxygenase (Cayman Cat # 60300) was used in this assay. Test compound and/or vehicle was added to 1.3 μL 12/15-Lipoxygenase in 50 mM Tris-HCl buffer, pH 7.4. The reaction was initiated by addition of 70 μM arachidonic acid in Tris-HCl buffer, pH 7.4, and terminated after a 10 minute incubation at room temperature by addition of FOX reagent (25 mM sulfuric acid, 100 μM xylenol orange, 100 μM iron (II) sulfate, methanol:water 9:1). The yellow color of acidified xylenol orange was converted to a blue color by the lipid hydroperoxide-mediated oxidation of Fe^2+ ions and the interaction of the resulting Fe^3+ ions with the dye. The complex was allowed to form during a 1 hour incubation at room temperature with shaking. Absorbance of the Fe^3+ complex was then measured at […] using a spectrophotometer.
Negative controls contained enzyme during the incubation step but substrate was not added until after the FOX reagent. Compounds are screened at 5 concentrations in triplicate starting at 10 μM

[3] = system: LTB4 production in human whole blood; experiment: Inhibition of LTB4 Production in Blood; format: cell-based; details: 1 h, 20 μM A23187, 60 minutes at 37° C., LTB4 in plasma by ELISA, read-out: protection against LTB4 at an EC50
Procedure, shortened: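 Citrated human whole blood preincubated 15 min at 37 °C with compound (top final 30 μM, 1:3 dilutions, quadruplicate), then stimulated with 20 μM A23187 for 60 min at 37 °C. Plasma LTB4 quantified by ELISA; IC50 from percent inhibition versus vehicle.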

[4] = system: release of the leukotriene LTB4 from a neutrophil cell line (MPRO cell line); experiment: LTB4-Cell Assay; format: cell-based; details: Mus musculus, 1 h, read-out: inhibition of LTB4 with an EC50
Procedure, shortened: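 Mouse promyelocytic cells differentiated to neutrophils with 10 μM all-trans retinoic acid for 72 h, then stimulated with 1 μM A23187 plus compound for 1 h at 37° C. Supernatant LTB4 quantified by competitive EIA; 5 concentrations in quadruplicate from 10 μM top.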

| Compound | IC50 [1] [µM] | IC50 [2] [µM] | EC50 [3] [µM] | EC50 [4] [µM] |
| --- | --- | --- | --- | --- |
| CCc1cc2c(c(CC)c1O)C=CC1(CCC1)O2 [5,7-diethylspiro[chromene-2,1′-cyclobutan]-6-ol] | < 0.3 | < 5 | < 10 |  |
| Cc1c(O)cc(Cl)c2c1CCC1(CCC1)O2 [8-chloro-5-methyl-3,4-dihydrospiro[chromene-2,1′-cyclobutan]-6-ol] | < 0.3 | < 5 |  | < 5 |
| Cc1c(O)cc2c(c1C)N(c1ccc(O)cn1)CC1(CCC1)C2 [1′-(5-hydroxypyridin-2-yl)-7′,8′-dimethyl-2′,4′-dihydro-1′H-spiro[cyclobutane-1,3′-quinolin]-6′-ol] | < 0.3 | < 5 | < 10 |  |
| Cc1cc2c(c(C)c1O)C=C(c1cnco1)C1(CCC1)O2 [5,7-dimethyl-3-(1,3-oxazol-5-yl)spiro[chromene-2,1′-cyclobutan]-6-ol] | < 0.3 | < 5 | < 10 |  |
| Cc1c(O)cc2c(c1C)N(c1ccc(Cl)cc1)CC1(CCC1)C2O (centres unmarked) [1′-(4-chlorophenyl)-7′,8′-dimethyl-2′,4′-dihydro-1′H-spiro[cyclobutane-1,3′-quinoline]-4′,6′-diol] |  | < 5 |  |  |
| Cc1c(O)c(CCC(C)C)c(C)c2c1CCC1(CCC1)O2 [5,8-dimethyl-7-(3-methylbutyl)-3,4-dihydrospiro[chromene-2,1′-cyclobutan]-6-ol] | < 0.3 | < 5 |  | < 5 |
| COc1cc2c(c(C)c1C)N(c1ccc(O)cc1)CC1(CCC1)C2 [4-(6′-methoxy-7′,8′-dimethyl-2′,4′-dihydro-1′H-spiro[cyclobutane-1,3′-quinoline]-1′-yl)phenol] | < 0.3 | < 5 |  |  |
| Cc1c(O)c(-c2cc3ccccc3o2)c(C)c2c1CCC(C)(C)O2 [7-(1-benzofuran-2-yl)-2,2,5,8-tetramethylchroman-6-ol] |  | < 5 |  |  |
| CCN1CC2(CCC2)Cc2cc(O)c(C)c(C)c21 [1′-ethyl-7′,8′-dimethyl-2′,4′-dihydro-1′H-spiro[cyclobutane-1,3′-quinolin]-6′-ol] |  | < 5 |  |  |
| COc1ccc(N2CC3(CCC3)Cc3cc(O)c(C)c(C)c32)cc1 [1′-(4-methoxyphenyl)-7′,8′-dimethyl-2′,4′-dihydro-1′H-spiro[cyclobutane-1,3′-quinolin]-6′-ol] |  | < 5 |  |  |
| Cc1c(C)c2c(c(C)c1O)C(OC(=O)Nc1ccccc1)CCS2 (centres unmarked) [6-hydroxy-5,7,8-trimethylthiochroman-4-yl phenylcarbamate] | < 0.3 | < 5 |  | < 5 |
| Cc1c(O)c(CCc2ccc3ccccc3n2)c(C)c2c1CCC1(CCC1)O2 [5,8-dimethyl-7-(2-(quinolin-2-yl)ethyl)spiro[chroman-2,1′-cyclobutan]-6-ol] |  | < 5 |  |  |
| Cc1c(O)cc2c(c1C)N(c1ccc(F)cc1)CC1(CCC1)C2 [1′-(4-fluorophenyl)-7′,8′-dimethyl-2′,4′-dihydro-1′H-spiro[cyclobutane-1,3′-quinolin]-6′-ol] |  | < 5 |  |  |
| Cc1c(C)c2c(c(C)c1O)C(SC(C)C)CC1(CCC1)O2 (centres unmarked) [4-(isopropylthio)-5,7,8-trimethyl-3,4-dihydrospiro[chromene-2,1′-cyclobutan]-6-ol] | < 0.3 | < 5 |  | < 5 |
| Cc1c(O)c(C(C)C)cc2c1C=CC1(CCC1)O2 [7-isopropyl-5-methylspiro[chromene-2,1′-cyclobutan]-6-ol] | < 0.3 | < 5 | < 10 |  |
| Cc1c(O)cc2c(c1C)N(c1cccc(O)c1)CC1(CCC1)C2 [1′-(3-hydroxyphenyl)-7′,8′-dimethyl-2′,4′-dihydro-1′H-spiro[cyclobutane-1,3′-quinolin]-6′-ol] | < 0.3 | < 5 |  |  |
| Cc1c(O)c(C(C)C)cc2c1CCC1(CCC1)O2 [7-isopropyl-5-methyl-3,4-dihydrospiro[chromene-2,1′-cyclobutan]-6-ol] | < 0.3 | < 5 | < 10 |  |
| Cc1c(O)c(C(C)(C)C)cc2c1CC1(CCC1)CN2c1ccc(O)cn1 [7′-tert-butyl-1′-(5-hydroxypyridin-2-yl)-5′-methyl-2′,4′-dihydro-1′H-spiro[cyclobutane-1,3′-quinolin]-6′-ol] |  | < 5 |  |  |
| Cc1c(C)c2c(c(C)c1O)CC1(CCC1)CO2 [5,7,8-trimethylspiro[chroman-3,1′-cyclobutan]-6-ol] | < 0.3 | < 5 | < 10 |  |
| Cc1cc2c(c(C)c1O)CC(c1cnco1)C1(CCC1)O2 (centres unmarked) [5,7-dimethyl-3-(oxazol-5-yl)spiro[chroman-2,1′-cyclobutan]-6-ol] | < 0.3 | < 5 | < 10 |  |
| Cc1c(C)c2c(c(C)c1O)CCC1(CCC1)S2 [5′,7′,8′-trimethyl-3′,4′-dihydrospiro[cyclobutane-1,2′-thiochromen]-6′-ol] | < 0.3 | < 5 |  | < 5 |
| CC(C)c1cc2c(c(C(C)C)c1O)C=CC1(CCC1)O2 [5,7-diisopropylspiro[chromene-2,1′-cyclobutan]-6-ol] | < 0.3 | < 5 | < 10 |  |
| Cc1c(C)c2c(c(C)c1OC(=O)CN1CCN(C)CC1)CCC1(CCC1)O2 [5,7,8-trimethyl-3,4-dihydrospiro[chromene-2,1′-cyclobutan]-6-yl-2-(4-methylpiperazin-1-yl)acetate] |  | < 5 |  |  |
| CCCc1ccc(S(=O)(=O)NCCCN2CC3(CCC3)Cc3cc(O)c(C)c(C)c32)cc1 [N-(3-(6′-hydroxy-7′,8′-dimethyl-2′,4′-dihydro-1′H-spiro[cyclobutane-1,3′-quinoline]-1′-yl)propyl)-4-propylbenzenesulfonamide] | < 0.3 | < 5 | < 10 |  |
| Cc1ccc(N2CC3(CCC3)Cc3cc(O)c(C)c(C)c32)cc1 [7′,8′-dimethyl-1′-p-tolyl-2′,4′-dihydro-1′H-spiro[cyclobutane-1,3′-quinolin]-6′-ol] | < 0.3 | < 5 |  |  |
